Source: PMC8569811, “The Nonphysiological Reductant Sodium Dithionite and [FeFe] Hydrogenase: Influence on the Enzyme Mechanism” (Journal of the American Chemical Society, 2021)

Columns and labels:
[1] = molecular target: T1, CpHydA1 ([FeFe] hydrogenase HydA1) (Clostridium pasteurianum, UniProt P29166); assay: IR spectroscopy, conversion to HoxH with Na2SO3 at low pH; assay type: binding
T1 sequence (P29166 1-574): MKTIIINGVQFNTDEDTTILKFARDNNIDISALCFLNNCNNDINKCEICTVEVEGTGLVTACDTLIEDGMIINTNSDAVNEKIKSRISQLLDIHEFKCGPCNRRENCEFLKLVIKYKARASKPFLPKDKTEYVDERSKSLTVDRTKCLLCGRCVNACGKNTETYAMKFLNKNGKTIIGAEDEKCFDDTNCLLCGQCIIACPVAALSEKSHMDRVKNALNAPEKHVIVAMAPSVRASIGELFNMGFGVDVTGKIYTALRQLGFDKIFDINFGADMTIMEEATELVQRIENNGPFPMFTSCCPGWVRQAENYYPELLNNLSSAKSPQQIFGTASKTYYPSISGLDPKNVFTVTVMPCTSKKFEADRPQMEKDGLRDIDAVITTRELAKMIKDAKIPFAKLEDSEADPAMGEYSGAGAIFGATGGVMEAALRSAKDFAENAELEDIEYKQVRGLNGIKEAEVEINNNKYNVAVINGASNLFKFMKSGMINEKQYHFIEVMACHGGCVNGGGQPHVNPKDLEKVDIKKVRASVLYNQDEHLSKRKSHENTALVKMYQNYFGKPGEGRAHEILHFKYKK

[2] = molecular target: T2, CrHydA1 ([FeFe] hydrogenase) (Chlamydomonas reinhardtii, UniProt Q9FYU1); assay: IR titration with Na2SO3 (source of SO2) at pH […] and […] fit; assay type: binding
T2 construct: gene hyd1; CrHydA1^PDT (chemical variant with propane dithiolate bridging ligand in [2Fe]H)
T2 sequence (Q9FYU1 57-497): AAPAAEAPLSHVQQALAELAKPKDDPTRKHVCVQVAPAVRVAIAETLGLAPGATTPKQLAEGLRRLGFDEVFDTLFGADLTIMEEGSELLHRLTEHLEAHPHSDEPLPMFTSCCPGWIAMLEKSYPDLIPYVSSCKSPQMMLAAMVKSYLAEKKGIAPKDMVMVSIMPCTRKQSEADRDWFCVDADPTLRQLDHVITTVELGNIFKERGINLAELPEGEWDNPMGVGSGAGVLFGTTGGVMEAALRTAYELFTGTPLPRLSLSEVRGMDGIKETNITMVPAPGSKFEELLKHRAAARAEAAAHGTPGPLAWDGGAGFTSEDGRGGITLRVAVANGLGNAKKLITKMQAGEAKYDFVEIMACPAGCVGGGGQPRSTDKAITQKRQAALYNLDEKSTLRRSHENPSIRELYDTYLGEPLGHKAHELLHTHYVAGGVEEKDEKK

Q: Which “IR spectroscopy, conversion to HoxH with Na2SO3 at low pH” value [1] does the source give for `O=S=O` [SO2] here?
A: The value was “SO2 binding caused formation of HoxH not only with CrHydA1 but also with the bacterial enzymes CpHydA1 and DdHydAB”.

Q: And the Kd [2]?
A: Its Kd is ~500 nM.
